We go through two compounds from patent US20230085307A1, “PYRIDAZINONE COMPOUND AND HERBICIDE” (NISSAN CHEMICAL CORPORATION, priority 2019, published 2023).

The test system of one test is redroot pigweed. The test is described as follows: Test Example 5: herbicidal effect by foliage application, plastic box (Table 20, symbol N). To be noted: foliage application, 320 g/ha, three weeks after application. It counts as in vivo, redroot pigweed (Amaranthus retroflexus). The procedure, abridged:
(§1)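 Foliar spray test: emulsion formulation diluted in water to a set application rate, sprayed onto 14-day-old plants raised in diluvial soil at 25° C to 30° C under glass. Both herbicidal effect and crop effect rated visually three weeks later.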
In the case of `COc1ccc2c(-c3c(O)c(C)nn(C)c3=O)c(-c3ccc4c(c3)OCCO4)sc2c1` [3-082], the “N: redroot pigweed, herbicidal effect grade” value (from here on “N: redroot pigweed”) was 5 (Herbicidal rate of 90% or more (almost completely withered)).

As to `CCCC(=O)Oc1c(C)nn(C)c(=O)c1-c1c(-c2ccc3c(c2)OCCO3)sc2cc(OC)ccc12` [3-083], the “N: redroot pigweed” value was 3 (Herbicidal rate of 40% or more and less than 70%).

Another test deals with Chinese sprangletop. The experiment in a line: Test Example 3: herbicidal effect by foliage application, Wagner pot (Table 18, symbol D). To be noted: 320 g/ha. It counts as in vivo, chinese sprangletop (Leptochloa chinensis). The procedure, abridged: (§2)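 Plants were sown in alluvial soil held under 0.1–0.5 cm standing water and grown 14 days in a greenhouse at 25–30 °C. An emulsifiable formulation, water-diluted to the set dose, was then sprayed onto the foliage, and effects were scored three weeks later using previously defined criteria.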
In the case of `COc1ccc2c(-c3c(O)c(C)nn(C)c3=O)c(-c3ccc4c(c3)OCCO4)sc2c1` [3-082], the “herbicidal effect on Chinese sprangletop (D)” value was 3 (Herbicidal rate of 40% or more and less than 70%).

`CCCC(=O)Oc1c(C)nn(C)c(=O)c1-c1c(-c2ccc3c(c2)OCCO3)sc2cc(OC)ccc12` [3-083]: the “herbicidal effect on Chinese sprangletop (D)” value is 4 (Herbicidal rate of 70% or more and less than 90%).

In a further test the test system is wild oat. The experiment in a line: Test Example 4: herbicidal effect by soil treatment (Table 19, symbol I). It counts as in vivo, wild oat (Avena fatua). To be noted: amount of applied herbicide 320 g/ha. The procedure, abridged: (§3)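 Step 1: sow seeds in sterilized diluvial soil, cover ~1.5 cm. Step 2: spray diluted emulsion onto soil surface at predetermined rate. Step 3: greenhouse, 25–30° C, three weeks. Step 4: grade effect on each plant by earlier criteria.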
Consider `COc1ccc2c(-c3c(O)c(C)nn(C)c3=O)c(-c3ccc4c(c3)OCCO4)sc2c1` [3-082], for which the “I: wild oat, herbicidal effect grade” value was 0 (Herbicidal rate of 5% or less (almost no effect)).

For the compound `CCCC(=O)Oc1c(C)nn(C)c(=O)c1-c1c(-c2ccc3c(c2)OCCO3)sc2cc(OC)ccc12` [3-083], the “I: wild oat, herbicidal effect grade” value is listed as 0 (Herbicidal rate of 5% or less (almost no effect)).

A further test relates to wild oat. The test is described as follows: Test Example 5: herbicidal effect by foliage application, plastic box (Table 20, symbol I). The format is in vivo, wild oat (Avena fatua). To be noted: foliage application, 320 g/ha, three weeks after application. In outline:
as §1
As to `COc1ccc2c(-c3c(O)c(C)nn(C)c3=O)c(-c3ccc4c(c3)OCCO4)sc2c1` [3-082], the “I: wild oat, herbicidal effect grade” value is 0 (Herbicidal rate of 5% or less (almost no effect)).

In the case of `CCCC(=O)Oc1c(C)nn(C)c(=O)c1-c1c(-c2ccc3c(c2)OCCO3)sc2cc(OC)ccc12` [3-083], the “I: wild oat, herbicidal effect grade” value is given as 0 (Herbicidal rate of 5% or less (almost no effect)).

A further test has as its system persian speedwell. The experiment in a line: Test Example 5: herbicidal effect by foliage application, plastic box (Table 20, symbol R). The format is in vivo, Persian speedwell (Veronica persica). To be noted: foliage application, 320 g/ha, three weeks after application. In outline:
as §1
`COc1ccc2c(-c3c(O)c(C)nn(C)c3=O)c(-c3ccc4c(c3)OCCO4)sc2c1` [3-082]: the “R: persian speedwell, herbicidal effect grade” value is on record as 5 (Herbicidal rate of 90% or more (almost completely withered)).

`CCCC(=O)Oc1c(C)nn(C)c(=O)c1-c1c(-c2ccc3c(c2)OCCO3)sc2cc(OC)ccc12` [3-083]: the “R: persian speedwell, herbicidal effect grade” value is on record as 5 (Herbicidal rate of 90% or more (almost completely withered)).

The next test has as its system windgrass. The test is described as follows: Test Example 4: herbicidal effect by soil treatment (Table 19, symbol L). It counts as in vivo, windgrass (Apera spica-venti). To be noted: amount of applied herbicide 320 g/ha. The procedure, abridged: as §3
On to `COc1ccc2c(-c3c(O)c(C)nn(C)c3=O)c(-c3ccc4c(c3)OCCO4)sc2c1` [3-082], for which the “L: windgrass, herbicidal effect grade” value was 0 (Herbicidal rate of 5% or less (almost no effect)).

Regarding `CCCC(=O)Oc1c(C)nn(C)c(=O)c1-c1c(-c2ccc3c(c2)OCCO3)sc2cc(OC)ccc12` [3-083], the “L: windgrass, herbicidal effect grade” value was 0 (Herbicidal rate of 5% or less (almost no effect)).

The test system of a further test is Italian ryegrass. The test is described as follows: Test Example 4: herbicidal effect by soil treatment (Table 19, symbol K). To be noted: amount of applied herbicide 320 g/ha. It counts as in vivo, Italian ryegrass (Lolium multiflorum). In outline: as §3
For the compound `COc1ccc2c(-c3c(O)c(C)nn(C)c3=O)c(-c3ccc4c(c3)OCCO4)sc2c1` [3-082], the “K: Italian ryegrass, herbicidal effect grade” value was 0 (Herbicidal rate of 5% or less (almost no effect)).

On to `CCCC(=O)Oc1c(C)nn(C)c(=O)c1-c1c(-c2ccc3c(c2)OCCO3)sc2cc(OC)ccc12` [3-083], for which the “K: Italian ryegrass, herbicidal effect grade” value is 0 (Herbicidal rate of 5% or less (almost no effect)).

The test system of another test is redroot pigweed. The test is described as follows: Test Example 4: herbicidal effect by soil treatment (Table 19, symbol N). It counts as in vivo, redroot pigweed (Amaranthus retroflexus). To be noted: amount of applied herbicide 320 g/ha. In outline: as §3
For `COc1ccc2c(-c3c(O)c(C)nn(C)c3=O)c(-c3ccc4c(c3)OCCO4)sc2c1` [3-082], the “N: redroot pigweed” value is 3 (Herbicidal rate of 40% or more and less than 70%).

Regarding `CCCC(=O)Oc1c(C)nn(C)c(=O)c1-c1c(-c2ccc3c(c2)OCCO3)sc2cc(OC)ccc12` [3-083], the “N: redroot pigweed” value is reported as 0 (Herbicidal rate of 5% or less (almost no effect)).

The next test has as its system chickweed. The test is described as follows: Test Example 4: herbicidal effect by soil treatment (Table 19, symbol P). The format is in vivo, common chickweed (Stellaria media). To be noted: amount of applied herbicide 320 g/ha. In outline: as §3
`COc1ccc2c(-c3c(O)c(C)nn(C)c3=O)c(-c3ccc4c(c3)OCCO4)sc2c1` [3-082]: the “P: chickweed, herbicidal effect grade” value was 4 (Herbicidal rate of 70% or more and less than 90%).

Regarding `CCCC(=O)Oc1c(C)nn(C)c(=O)c1-c1c(-c2ccc3c(c2)OCCO3)sc2cc(OC)ccc12` [3-083], the “P: chickweed, herbicidal effect grade” value is 5 (Herbicidal rate of 90% or more (almost completely withered)).

Another test relates to Japanese bulrush. The test is described as follows: Test Example 1: herbicidal activity, application before weed generation under submerged conditions (Table 16, symbol B). It counts as in vivo, Japanese bulrush (Schoenoplectus juncoides). To be noted: amount of applied herbicide 320 g/ha. The procedure, abridged: (§4)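 Submerged Wagner pots (alluvial soil, 4 cm water) sown with weed seeds and planted with 2.5-leaf rice seedlings; emulsifiable concentrate diluted in water applied to water surface on sowing day. Held in greenhouse at 25-30 °C; injury scored 0-5 by herbicidal rate after three weeks.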
On to `COc1ccc2c(-c3c(O)c(C)nn(C)c3=O)c(-c3ccc4c(c3)OCCO4)sc2c1` [3-082], for which the “Herbicidal effect, B: Japanese bulrush” value is given as 5 (Herbicidal rate of 90% or more (almost completely withered)).

With `CCCC(=O)Oc1c(C)nn(C)c(=O)c1-c1c(-c2ccc3c(c2)OCCO3)sc2cc(OC)ccc12` [3-083], the “Herbicidal effect, B: Japanese bulrush” value was 4 (Herbicidal rate of 70% or more and less than 90%).

For another test, the system named is rice flat sedge. The experiment in a line: Test Example 3: herbicidal effect by foliage application, Wagner pot (Table 18, symbol E). To be noted: 320 g/ha. It counts as in vivo, rice flat sedge (Cyperus iria). In outline: as §2
Turning to `COc1ccc2c(-c3c(O)c(C)nn(C)c3=O)c(-c3ccc4c(c3)OCCO4)sc2c1` [3-082], the “herbicidal effect on rice flat sedge (E)” value is 5 (Herbicidal rate of 90% or more (almost completely withered)).

As for `CCCC(=O)Oc1c(C)nn(C)c(=O)c1-c1c(-c2ccc3c(c2)OCCO3)sc2cc(OC)ccc12` [3-083], the “herbicidal effect on rice flat sedge (E)” value is 4 (Herbicidal rate of 70% or more and less than 90%).

A further test relates to green foxtail. The test is described as follows: Test Example 4: herbicidal effect by soil treatment (Table 19, symbol G). The format is in vivo, green foxtail (Setaria viridis). To be noted: amount of applied herbicide 320 g/ha. The procedure, abridged:
as §3
In the case of `COc1ccc2c(-c3c(O)c(C)nn(C)c3=O)c(-c3ccc4c(c3)OCCO4)sc2c1` [3-082], the “G: green foxtail, herbicidal effect grade” value was 0 (Herbicidal rate of 5% or less (almost no effect)).

Consider `CCCC(=O)Oc1c(C)nn(C)c(=O)c1-c1c(-c2ccc3c(c2)OCCO3)sc2cc(OC)ccc12` [3-083], for which the “G: green foxtail, herbicidal effect grade” value was 4 (Herbicidal rate of 70% or more and less than 90%).

The next test concerns windgrass. The experiment in a line: Test Example 5: herbicidal effect by foliage application, plastic box (Table 20, symbol L). It counts as in vivo, windgrass (Apera spica-venti). To be noted: foliage application, 320 g/ha, three weeks after application. The procedure, abridged: as §1
With `COc1ccc2c(-c3c(O)c(C)nn(C)c3=O)c(-c3ccc4c(c3)OCCO4)sc2c1` [3-082], the “L: windgrass, herbicidal effect grade” value is given as 0 (Herbicidal rate of 5% or less (almost no effect)).

As to `CCCC(=O)Oc1c(C)nn(C)c(=O)c1-c1c(-c2ccc3c(c2)OCCO3)sc2cc(OC)ccc12` [3-083], the “L: windgrass, herbicidal effect grade” value was 0 (Herbicidal rate of 5% or less (almost no effect)).

For the next test, the system named is lambsquarters. The test is described as follows: Test Example 5: herbicidal effect by foliage application, plastic box (Table 20, symbol O). It counts as in vivo, lambsquarters (Chenopodium album). To be noted: foliage application, 320 g/ha, three weeks after application. In outline: as §1
On to `COc1ccc2c(-c3c(O)c(C)nn(C)c3=O)c(-c3ccc4c(c3)OCCO4)sc2c1` [3-082], for which the “O: lambsquarters, herbicidal effect grade” value is 5 (Herbicidal rate of 90% or more (almost completely withered)).

With `CCCC(=O)Oc1c(C)nn(C)c(=O)c1-c1c(-c2ccc3c(c2)OCCO3)sc2cc(OC)ccc12` [3-083], the “O: lambsquarters, herbicidal effect grade” value is 0 (Herbicidal rate of 5% or less (almost no effect)).

For another test, the system named is southern crabgrass. The test is described as follows: Test Example 5: herbicidal effect by foliage application, plastic box (Table 20, symbol F). The format is in vivo, southern crabgrass (Digitaria ciliaris). To be noted: foliage application, 320 g/ha, three weeks after application. In outline: as §1
On to `COc1ccc2c(-c3c(O)c(C)nn(C)c3=O)c(-c3ccc4c(c3)OCCO4)sc2c1` [3-082], for which the “F: southern crabgrass, herbicidal effect grade” value was 0 (Herbicidal rate of 5% or less (almost no effect)).

For `CCCC(=O)Oc1c(C)nn(C)c(=O)c1-c1c(-c2ccc3c(c2)OCCO3)sc2cc(OC)ccc12` [3-083], the “F: southern crabgrass, herbicidal effect grade” value is 3 (Herbicidal rate of 40% or more and less than 70%).

Another test deals with Japanese bulrush. The experiment in a line: Test Example 2: herbicidal activity, application during weed generation under submerged conditions (Table 17, symbol B). Conditions: AAH 320 g/ha; application during weed generation, submerged conditions. It counts as in vivo, Japanese bulrush (Schoenoplectus juncoides). The procedure, abridged: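 Mixed weed seedlings in alluvial soil under a 4 cm water layer, greenhouse-grown at 25–30° C. Compound given as a diluted emulsion into the floodwater at the 1–2 leaf stage; response graded after three weeks.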
Take `COc1ccc2c(-c3c(O)c(C)nn(C)c3=O)c(-c3ccc4c(c3)OCCO4)sc2c1` [3-082]: the “herbicidal effect rating, B: Japanese bulrush” value is 1 (Herbicidal rate of 5% or more and less than 20%).

Turning to `CCCC(=O)Oc1c(C)nn(C)c(=O)c1-c1c(-c2ccc3c(c2)OCCO3)sc2cc(OC)ccc12` [3-083], the “herbicidal effect rating, B: Japanese bulrush” value was 3 (Herbicidal rate of 40% or more and less than 70%).

The test system of a further test is oval-leafed pondweed. The experiment in a line: Test Example 1: herbicidal activity, application before weed generation under submerged conditions (Table 16, symbol C). Conditions: amount of applied herbicide 320 g/ha. The format is in vivo, oval-leafed pondweed (Monochoria vaginalis). The procedure, abridged:
as §4
As to `COc1ccc2c(-c3c(O)c(C)nn(C)c3=O)c(-c3ccc4c(c3)OCCO4)sc2c1` [3-082], the “Herbicidal effect, C: oval-leafed pondweed” value was 4 (Herbicidal rate of 70% or more and less than 90%).

Regarding `CCCC(=O)Oc1c(C)nn(C)c(=O)c1-c1c(-c2ccc3c(c2)OCCO3)sc2cc(OC)ccc12` [3-083], the “Herbicidal effect, C: oval-leafed pondweed” value was 4 (Herbicidal rate of 70% or more and less than 90%).
